One experiment concerns the target rat 5-HT2B receptor (Rattus norvegicus, UniProt P30994). Put plainly: biochemical. Type of experiment: binding.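 Further: displacement of [3H]5-HT from membranes of suspension cells carrying cloned rat 5-HT2B receptor, incubated 15 min at 37 °C or 2 h at 0 °C, filter-bound radioactivity counted by scintillation.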
Experiment [1] addresses 5-HT2B receptor (rat stomach fundus) (Rattus norvegicus, UniProt P30994). As to conditions: rat stomach fundus; vs serotonin; ± standard error; read-out: 5-HT2B (Fundus) -log KB (converted).
Where [2] appears, read: Ki Rat 5-HT2B, [3H]Serotonin; 5-HT2B cells; AVG.
[3] abbreviates: [3H]Serotonin; 5-HT2B cells; AVG; read-out: Ki Rat 5-HT2B.

Where a name gives a salt, the structure may show the parent alone. Read-outs that look alike come from different tables or passages of the source. Bounds are passed on as bounds.
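Wherever 5-HT2B (Fundus) -log KB is given: isometric contraction of isolated male Wistar rat stomach fundus strips, serotonin concentration-response curves after antagonist incubation, KB from dose ratio of agonist potency versus control curve.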

Chain of rat 5-HT2B receptor (P30994 whole entry): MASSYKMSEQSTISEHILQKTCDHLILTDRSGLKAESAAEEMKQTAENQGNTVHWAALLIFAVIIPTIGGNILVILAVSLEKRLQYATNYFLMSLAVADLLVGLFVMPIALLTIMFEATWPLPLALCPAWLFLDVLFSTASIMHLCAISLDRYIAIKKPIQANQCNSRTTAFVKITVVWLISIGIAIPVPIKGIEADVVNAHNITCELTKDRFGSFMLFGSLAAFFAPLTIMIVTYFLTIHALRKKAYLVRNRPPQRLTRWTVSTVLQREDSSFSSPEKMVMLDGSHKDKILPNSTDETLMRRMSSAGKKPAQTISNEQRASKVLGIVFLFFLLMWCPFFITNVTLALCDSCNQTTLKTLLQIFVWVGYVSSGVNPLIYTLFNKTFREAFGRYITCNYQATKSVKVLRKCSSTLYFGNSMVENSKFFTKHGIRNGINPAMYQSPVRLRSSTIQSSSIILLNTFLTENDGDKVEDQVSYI
Chain of 5-HT2B receptor (rat stomach fundus) (P30994 whole entry): as above

What is called Ki is the equilibrium dissociation constant of an inhibitor or competing ligand from its target. With `CCC(CO)NC(=O)C1C=C2c3cccc4c3c(cn4C)CC2N(C)C1` (stereo not drawn), affinity at rat 5-HT2B receptor (setting [2]) was put at a Ki of 6.28 nM. Consider `CC(O)C(C)OC(=O)C1CC2c3cccc4[nH]cc(c34)CC2N(C)C1` (stereo not drawn), for which, on rat 5-HT2B receptor (setting [3]), the Ki was 12.2 nM. Still for that read-out and setting: the same measure for `CC(O)C(C)OC(=O)C1CC2c3cccc4c3c(cn4C(C)C)CC2N(C)C1` (stereo not drawn): 6.87 nM.

As for `CN1CC(C(=O)NCCc2ccccn2)CC2c3cccc4c3c(cn4C)CC21` (stereo not drawn), the Ki at rat 5-HT2B receptor (setting [2]) worked out at 24.5 nM.

At rat 5-HT2B receptor (setting [2]), `CN1CC(C(=O)NCc2cccnc2)CC2c3cccc4[nH]cc(c34)CC21` (stereo not drawn) gave a Ki of 35.1 nM. Still for that read-out and setting: the same measure for `CN1CC(C(=O)NCc2cccnc2)CC2c3cccc4c3c(cn4C)CC21` (stereo not drawn): 15.5 nM. Turning to `CCCN(CCC)C1CCc2cccc(O)c2C1` (stereo not drawn), the Ki at rat 5-HT2B receptor (setting [3]) came out at 4120 nM. As to `CCCCC(=O)c1cccc2c1CC(NC)CC2` (stereo not drawn), on rat 5-HT2B receptor (setting [3]), the Ki was 5150 nM. For `CN(C)C1CCc2cccc(C(=O)c3ccccc3F)c2C1` (stereo not drawn), the inhibition constant Ki on rat 5-HT2B receptor (setting [3]) worked out at 3020 nM. Same read-out and setting: the value for `CCCC(=O)c1cccc2c1CC(NC)CC2` (stereo not drawn) was 1500 nM; that for `CCCC(=O)c1cccc2c1CC(N(C)C)CC2` (stereo not drawn) was 862 nM; that for `CCCCC(=O)c1cccc2c1CC(N(C)C)CC2` (stereo not drawn) was 936 nM.

As to `CN(C)C1CCc2cccc(C(=O)c3ccccc3)c2C1` (stereo not drawn), the Ki on rat 5-HT2B receptor (setting [3]) stood at 1750 nM. With `Cc1cc(Br)c2[nH]cc(CCN)c2c1`, the affinity on rat 5-HT2B receptor (setting [2]) corresponds to a Ki of 37.6 nM. On the same count and under the same terms, the same measure for `NCCc1c[nH]c2c(Br)cccc12`: 32 nM. For the compound `Cc1[nH]c2ccc(O)cc2c1CCN`, the inhibition constant Ki on rat 5-HT2B receptor (setting [3]) stood at 284 nM. On rat 5-HT2B receptor (setting [2]), `CCCNCCc1c[nH]c2ccc(Br)cc12` gave a Ki of 131 nM.

Consider `CCCN(CCC)CCc1c[nH]c2ccc(OC)cc12`, for which the affinity on rat 5-HT2B receptor (setting [2]), expressed as Ki, was 169 nM.

In the case of `NCc1c[nH]c2ccc(Br)cc12`, the inhibition constant (Ki) at rat 5-HT2B receptor (read-out: Ki Rat 5-HT2B; [3H]Serotonin; 5-HT2B cells; AVG) worked out at 39.3 nM. As for `NCCc1c[nH]c2ccccc12`, the Ki at rat 5-HT2B receptor (setting [3]) was 113 nM. The same measure, in the same setting: the value for `CC(C)n1cc(CCN)c2cc(Br)ccc21` was 475 nM. In the case of `CCCN(CCC)CCc1c[nH]c2ccc(O)cc12`, the Ki on rat 5-HT2B receptor (setting [2]) amounted to 61 nM. As to `Cc1ccc2[nH]cc(CCN)c2c1`, on rat 5-HT2B receptor (setting [3]), the Ki is 32.8 nM. As to `NCCc1c[nH]c2ccc(F)cc12`, on rat 5-HT2B receptor (setting [3]), the Ki was found to be 5.65 nM. Still for that read-out and setting: the value for `NCCc1c[nH]c2ccc(Cl)cc12` was 6.21 nM. As to `NCCc1c[nH]c2cc(F)ccc12`, at rat 5-HT2B receptor (setting [2]), affinity was put at a Ki of 40.6 nM. Same read-out and setting: the same measure for `NCCc1c[nH]c2c(F)cc(F)cc12`: 15.4 nM; for `NCCc1c[nH]c2ccc(OCc3ccccc3)cc12`: 30.2 nM; for `CCN(C)CCc1c[nH]c2ccc(OCc3ccccc3)cc12`: 84.5 nM. For the compound `CN(C)CCc1c[nH]c2ccc(OCc3ccccc3)cc12`, the affinity at rat 5-HT2B receptor (setting [2]) corresponds to a Ki of 38.5 nM. Same read-out and setting: the same measure for `COC(=O)c1ccc2[nH]cc(CCN)c2c1`: 49.3 nM; for `CC(N)Cc1c[nH]c2ccc(F)cc12` (stereo not drawn): 6.52 nM; for `CC(N)Cc1c[nH]c2cc(F)ccc12` (stereo not drawn): 49.9 nM. On the same count and under the same terms, the value for `NCCc1c[nH]c2cc(O)c(O)cc12` was 41.6 nM. Still for that read-out and setting: the value for `NCCc1c[nH]c2c(O)cc(O)cc12` was 4570 nM.

With `NCCc1c[nH]c2c1ccc1ccccc12`, at rat 5-HT2B receptor (setting [3]), the Ki was determined as 155 nM. `Cc1c(Br)ccc2c(CCN)c[nH]c12`: the Ki at rat 5-HT2B receptor (setting [2]) came out at 20.8 nM. The same measure, in the same setting: the value for `NCCc1c[nH]c2c(F)cccc12` was 62.4 nM; that for `Cc1ccc2c(CCN)c[nH]c2c1` was 102 nM; that for `NCCc1c[nH]c2c(F)ccc(F)c12` was 337 nM. As to `COc1ccc2cccc(N3CCNCC3)c2c1`, the Ki at rat 5-HT2B receptor (setting [2]) amounted to 3.58 nM.

Take `CCCc1ccc2[nH]c3c(c2c1)CCNC3Cc1ccc(OC)c(OC)c1` (stereo not drawn): the Ki on rat 5-HT2B receptor (setting [3]) was 28.4 nM.

In the case of `CC(C)c1ccc2[nH]c3c(c2c1)CCNC3C(C)c1cccc2ccccc12` (stereo not drawn), the inhibition constant (Ki) at rat 5-HT2B receptor (setting [3]) worked out at 14.2 nM. Take `CC(C)(C)c1ccc2[nH]c3c(c2c1)CCNC3Cc1cccc2ccccc12` (stereo not drawn): on rat 5-HT2B receptor (setting [3]), the Ki amounted to 44.9 nM.

Take `COc1ccc(CC2NCCc3c2[nH]c2ccc(-c4ccccc4)cc32)cc1OC` (stereo not drawn): the inhibition constant Ki on rat 5-HT2B receptor (setting [3]) was found to be 229 nM. Consider `Cc1ccc2[nH]c3c(c2c1F)CCNC3Cc1cccc2ccccc12` (stereo not drawn), for which the Ki at rat 5-HT2B receptor (setting [3]) amounted to 4.38 nM. On the same count and under the same terms, the value for `COc1ccc(C(C)(C)C2NCCc3c2[nH]c2ccccc32)cc1OC` (stereo not drawn) was 220 nM. At rat 5-HT2B receptor (setting [2]), `c1ccc2c3c([nH]c2c1)CNCC3` registered a Ki of 379 nM. The same measure, in the same setting: the value for `COc1ccc2[nH]c3c(c2c1)CCNC3` was 405 nM. Turning to `Cc1c(Br)ccc2c3c([nH]c12)CNCC3`, on rat 5-HT2B receptor (setting [3]), the Ki amounted to 32.4 nM. In the case of `Fc1ccc2[nH]c3c(c2c1)CCNC3`, the Ki on rat 5-HT2B receptor (setting [3]) worked out at 322 nM. In turn, `Fc1cccc2c3c([nH]c12)CNCC3` registered a Ki at rat 5-HT2B receptor (setting [2]) of 25.6 nM. With `Cc1ccc2c3c([nH]c2c1)CNCC3`, the inhibition constant (Ki) at rat 5-HT2B receptor (setting [3]) came out at 78.5 nM. On the same count and under the same terms, the value for `Cc1cccc2c3c([nH]c12)CNCC3` was 60.1 nM; that for `COc1ccc(CC2NCCc3c2[nH]c2c(Br)c(C)ccc32)c(OC)c1OC` (stereo not drawn) was 8.77 nM.

Consider `c1ccc(COc2cccc3c4c([nH]c23)CNCC4)cc1`, for which, at rat 5-HT2B receptor (setting [3]), the Ki stood at 5650 nM.

Regarding `COc1ccc(C(C)C2NCCc3c2[nH]c2ccc(C)cc32)cc1OC` (racemic) [Example 40], in experiment [1], the Kb was 0.178 nM. Consider `CCc1ccc2[nH]c3c(c2c1)CCNC3C(C)c1ccc(OC)c(OC)c1` (racemic) [Example 42, (±) 6-ethyl-1-[(3,4-dimethoxyphenyl)-1-ethyl]-1,2,3,4-tetrahydro-9H-pyrido[3,4-b]indole (Z)-2-butenedioate], for which, in experiment [1], the Kb was 0.275 nM. The same measure, in the same setting: the same measure for `CCC(c1ccc(OC)c(OC)c1)C1NCCc2c1[nH]c1ccc(C)cc21` (racemic) [Example 43, (±) 6-methyl-1-[(3,4-dimethoxyphenyl)-1-propyl]-1,2,3,4-tetrahydro-9H-pyrido[3,4-b]indole (Z)-2-butenedioate]: 0.363 nM; for `CC(C)c1ccc2[nH]c3c(c2c1)CCNC3C(C)c1cccc2ccccc12` (racemic) [Example 50, hydrochloride]: 3.98 nM; for `Brc1cccc2c3c([nH]c12)C(Cc1cccc2ccccc12)NCC3` (racemic) [Example 52, (±) 8-bromo-1-(1-naphthalenylmethyl)-1,2,3,4-tetrahydro-9H-pyrido [3,4-b]indole hydrochloride]: around 0.794 nM. As for `Brc1ccc2[nH]c3c(c2c1)CCNC3Cc1cccc2ccccc12` (racemic) [Example 55, (±) 6-bromo-1-(1-naphthalenylmethyl)-1,2,3,4-tetrahydro-9H-pyrido [3,4-b]indole (Z)-2-butenedioate], the Kb in experiment [1] was 1.12 nM.

`Cc1ccc2c3c([nH]c2c1Br)C(Cc1cccc2ccccc12)NCC3` (racemic) [Example 56, (±) 7-methyl-8-bromo-1-(1-naphthalenylmethyl)-1,2,3,4-tetrahydro-9H-pyrido [3,4-b]indole hydrochloride]: in experiment [1], the Kb was around 29.5 nM. In the case of `c1ccc2c(CC3NCCc4c3[nH]c3ccc(C5CCCCC5)cc43)cccc2c1` (racemic) [Example 57, (+/-) 6-cyclohexyl-1-(1-naphthalenylmethyl)-1,2,3,4-tetrahydro-9H-pyrido [3,4-b] indole hydrochloride], the Kb in experiment [1] is above 10 nM. For the compound `Cc1ccc2[nH]c3c(c2c1)CCN(C)C3Cc1cccc2ccccc12` (racemic) [Example 58, (+/-) 2,6-dimethyl-1-(1-naphthalenylmethyl)-1,2,3,4-tetrahydro-9H-pyrido [3,4-b] indole hydrochloride], the Kb in experiment [1] was above 30.2 nM.

For `Cc1ccc2[nH]c3c(c2c1F)CCNC3Cc1cccc2ccccc12` (racemic) [Example 59, (+/-) 5-fluoro-6-methyl-1-(1-naphthalenylmethyl)-1,2,3,4-tetrahydro-9H-pyrido [3,4-b] indole (Z)-2-butenedioate], the Kb in experiment [1] was 0.204 nM. For `c1ccc2c(CC3NCCc4c3[nH]c3c4ccc4ccccc43)cccc2c1` (racemic) [Example 60, (+/-) 7,8,9,10-tetrahydro-10-(1-naphthalenylmethyl)-11H-benzo [g] pyrido [3,4-b] indole (Z)-2-butenedioate], the Kb in experiment [1] was 1.2 nM. For the compound `CC(C)(C)c1ccc2[nH]c3c(c2c1)CCNC3Cc1cccc2ccccc12` (racemic) [Example 61, (+/-) 6-(1,1-dimethylethyl)-1,2,3,4-tetrahydro-1-(1-naphthalenylmethyl)-9H-pyrido [3,4b] indole (Z)-2-butenedioate], the Kb in experiment [1] was 3.63 nM. Same read-out and setting: the value for `CC(C)c1ccc2[nH]c3c(c2c1)CCNC3Cc1cccc2ccccc12` (racemic) [Example 62, (+/-) 6-(1-methylethyl)-1,2,3,4-tetrahydro-1-(1-naphthalenylmethyl)-9H-pyrido [3,4b] indole (Z)-2-butenedioate] was 2.63 nM.

Take `Cc1ccc2c(c1)c1c(n2C)C(Cc2cccc3ccccc23)NCC1` (racemic) [Example 63, (+/-) 6,9-dimethyl-1,2,3,4-tetrahydro-1-(1-naphthalenylmethyl)-9H-pyrido [3,4-b] indole hydrochloride]: in experiment [1], the Kb is 0.813 nM. Still for that read-out and setting: the same measure for `COc1ccc(CC2NCCc3c2[nH]c2c(C)cccc32)cc1OC` (stereo not drawn) [Example 1, 8-methyl-1-[(3,4-dimethoxyphenyl)methyl]-1,2,3,4-tetrahydro-9H-pyrido[3,4-b]indole]: 1 nM; for `COc1ccc(CC2NCCc3c2[nH]c2c(Br)cc(Br)cc32)cc1OC` (stereo not drawn) [Example 3, 6,8-dibromo-1-[(3,4-dimethoxyphenyl)methyl]-1,2,3,4-tetrahydro-9H-pyrido[3,4-b]indole]: 1.66 nM. Still for that read-out and setting: the same measure for `COc1ccc(CC2NCCc3c2[nH]c2c(Br)cc(C)cc32)cc1OC` (stereo not drawn) [Example 4, 6-methyl-8-bromo-1-[(3,4-dimethoxyphenyl)-methyl]-1,2,3,4-tetrahydro-9H-pyrido[3,4-b]indole hydrochloride]: 1.2 nM. For the compound `COc1ccc(CC2NCCc3c2[nH]c2ccc(C(C)(C)C)cc32)cc1OC` (stereo not drawn) [drawing 148], the inhibition constant Ki on rat 5-HT2B receptor (setting [3]) was 39.7 nM. The same measure, in the same setting: the same measure for `COc1ccc(CC2NCCc3c2[nH]c2ccc(C4CCCCC4)cc32)cc1OC` (stereo not drawn) [drawing 149]: 1460 nM. Still for that read-out and setting: the same measure for `COc1cc(CC2NCCc3c2[nH]c2ccc(C)cc32)cc(I)c1OC` (stereo not drawn) [drawing 153]: 4.82 nM. Regarding `Clc1ccc2[nH]c3c(c2c1)CCNC3` [drawing 166], the affinity at rat 5-HT2B receptor (setting [2]), expressed as Ki, was 70.7 nM. For the compound `Brc1ccc2[nH]c3c(c2c1)CCNC3` [drawing 170], the affinity on rat 5-HT2B receptor (setting [2]) corresponds to a Ki of 62.1 nM.

Source of the values: patent publication US5688807A, “Method for treating 5HT2B receptor related conditions” (Eli Lilly and Company, priority 1995, dated 1997).
